# Results reported in patent publication US12180226B2, “Spirotricycle RIPK1 inhibitors and methods of uses thereof” (Merck Sharp & Dohme LLC, priority 2021, dated 2024).
# Counter-ions that a name gives are not always drawn.
# Target: RIPK1 (recombinant GST-RIPK1 kinase domain, residues 1-327) (Homo sapiens (Human), UniProt Q13546)
# Experiment: RIPK1-ADP-Glo Enzymatic Assay
# Type: biochemical
# Conditions: ADP-Glo; 25 nM GST-RIPK1, 300 μM ATP; assay lower limit ~25 nM; read-out: RIPK1 V0 Ec50
# How it was run: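 Using dephosphorylated MBP (3 μM) as substrate and 300 μM ATP, 25 nM baculovirus-produced enzyme was reacted for 150 min after a 30-min compound pre-incubation. Luminescent ADP detection followed; lower confidence limit ~25 nM.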
# Sequence of RIPK1 (recombinant GST-RIPK1 kinase domain, residues 1-327) (Q13546 1-327): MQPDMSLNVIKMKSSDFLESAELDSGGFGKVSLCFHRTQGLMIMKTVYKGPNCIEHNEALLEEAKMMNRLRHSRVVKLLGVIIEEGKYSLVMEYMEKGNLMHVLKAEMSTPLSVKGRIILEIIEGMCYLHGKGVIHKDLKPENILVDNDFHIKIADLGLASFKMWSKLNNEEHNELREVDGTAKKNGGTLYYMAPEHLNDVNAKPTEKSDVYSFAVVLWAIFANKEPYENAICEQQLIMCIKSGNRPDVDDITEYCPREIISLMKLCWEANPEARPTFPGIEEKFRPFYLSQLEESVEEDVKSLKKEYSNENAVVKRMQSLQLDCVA
row,EC50 [nM],SMILES
1,< 25,"O=C1N2[C@@H](CO[C@H]2c2cc(F)cc(F)c2)CC12CCN(c1ccnc3ccnn13)CC2 (stereo in doubt) [Example 4.147, 3′-(3,5-difluorophenyl)-1-(pyrazolo[1,5-a]pyrimidin-7-yl)dihydro-1′H,3′H,5′H-spiro[piperidine-4,6′-pyrrolo[1,2-c] [1,3]oxazol]-5′-one]"
2,< 25,"CC1CC2(CCN1c1ccnc3c(F)cnn13)O[C@@H]1CC[C@@H](c3ccccc3)N1C2=O (stereo partly drawn) [Example 4.224, (4R,5′S,7a′R)-1-(3-fluoropyrazolo[1,5-a]pyrimidin-7-yl)-2-methyl-5′-phenyltetrahydro-3′H-spiro[piperidine-4,2′-pyrrolo[2,1-b] [1,3]oxazol]-3′-one]"
3,27.2,"O=C(c1cocn1)N1CCC2(CC1)O[C@@H]1CC[C@@H](c3cc(F)cc(F)c3)N1C2=O [Example 5.54, (5′S,7a′R)-5′-(3,5-difluoro-phenyl)-1-(oxazole-4-car-bonyl)tetrahydro-3′H-spiro [piperidine-4,2′-pyrrolo-[2,1-b]oxazol]-3′-one]"
4,701,"Cc1cccc(CN2CCC3(CC2)O[C@@H]2CC[C@@H](c4cc(F)cc(F)c4)N2C3=O)c1 [Example 22.4, (5′S,7a′R)-5′-(3,5-difluorophenyl)-1-[(3-methylphenyl)methyl] tetrahydro-3′H-spiro[piperidine-4,2′-pyrrolo[2,1-b][1,3]oxazol]-3′-one]"
5,< 25,"Cc1nc(N2CCC3(CC2)OC2CCC(c4cnccn4)N2C3=O)ccc1C#N (stereo not shown) [Example 4.142, 2-methyl-6-[3′-oxo-5′-(pyrazin-2-yl)tetrahydro-1H,3′H-spiro[piperidine-4,2′-pyrrolo[2,1-b] [1,3]oxazol]-1-yl]pyridine-3-carbonitrile]"
6,309,"N#Cc1cc(N2CCC3(CC2)C[C@@H]2OC[C@@H](c4ccccc4)N2C3=O)ncn1 [Example 4.113, 6-[(3′R,7a′S)-5′-oxo-3′-phenyltetrahydro-1H,5′H-spiro[piperidine-4,6′-pyrrolo[2,1-b] [1,3]oxazol]-1-yl]pyrimidine-4-carbonitrile]"
7,25,"N#Cc1cccc(C(=O)N2CCC3(CC2)O[C@@H]2CC[C@@H](c4cc(F)cc(F)c4)N2C3=O)c1 [Example 5.17, 3-((5′S,7a′R)-5′-(3,5-difluorophenyl)-3′-oxo-tetrahydro-3′H-spiro [piperidine-4,2′-pyrrolo-[2,1-b]oxazole]-1-carbon-yl)benzonitrile]"
8,565,"O=C1N2[C@@H](CC[C@H]2c2cc(F)cc(F)c2)OC12CCN(c1ncc(C3CC3)cn1)CC2 [Example 4.56, (5′S,7a′R)-1-(5-cyclopropylpyrimidin-2-yl)-5′-(3,5-difluorophenyl)tetrahydro-3′H-spiro[piperidine-4,2′-pyrrolo[2,1-b] [1,3]oxazol]-3′-one]"
9,< 25,"NC(=O)c1ccc(N2CCC3(CC2)O[C@@H]2CC[C@@H](c4ccccc4)N2C3=O)n2ncnc12 [Example 4.212, 5-[(5′S,7a′R)-3′-oxo-5′-phenyltetrahydro-1H,3′H-spiro[piperidine-4,2′-pyrrolo[2,1-b] [1,3]oxazol]-1-yl] [1,2,4]triazolo[1,5-a] pyridine-8-carboxamide]"
10,48.6,"O=C(c1cnc2ccccc2n1)N1CCC2(CC1)O[C@@H]1CC[C@@H](c3cc(F)cc(F)c3)N1C2=O [Example 6.73, (5′S,7a′R)-5′-(3,5-difluorophenyl)-1-(quinoxaline-2-carbon-yl)tetrahydro-3′H-spiro[piperidine-4,2′-pyrrolo[2,1-b][1,3]-oxazol]-3′-one]"
11,26.2,"Cc1ccn(-c2cccc(N3CCC4(CC3)O[C@@H]3CC[C@@H](c5ccccc5)N3C4=O)n2)n1 [Example 4.263, (5′S,7a′R)-1-[6-(3-methyl-1H-pyrazol-1-yl)pyridin-2-yl]-5′-phenyltetrahydro-3′H-spiro[piperidine-4,2′-pyrrolo[2,1-b] [1,3]oxazol]-3′-one]"
12,< 25,"Cc1c(Cl)ncnc1N1CCC2(CC1)O[C@@H]1CC[C@@H](c3ccccc3)N1C2=O [Example 4.30, (5′S,7a′R)-1-(6-chloro-5-methylpyrimidin-4-yl)-5′-phenyltetrahydro-3′H-spiro[piperidine-4,2′-pyrrolo[2,1-b] [1,3]oxazol]-3′-one]"
13,63.7,"O=C1N2[C@@H](CC[C@H]2c2cc(F)cc(F)c2)OC12CN(c1cccc3ncnn13)C2 [Example 4.135, (5′S,7a′R)-5′-(3,5-difluorophenyl)-1-([1,2,4]triazolo[1,5-a]pyridin-5-yl)tetrahydro-3′H-spiro[azetidine-3,2′-pyrrolo[2,1-b] [1,3]oxazol]-3′-one]"
14,229,"O=C1N2[C@@H](CC[C@H]2c2ccccc2)OC12CCN(c1cc(-n3ccnc3)ccn1)CC2 [Example 11.21, (5′S,7a′R)-1-[4-(1H-imidazol-1-yl)pyridin-2-yl]-5′-phenyltetrahydro-3′H-spiro[piperidine-4,2′-pyrrolo[2,1-b][1,3]oxazol]-3′-one]"
15,52.8,"CCOC(=O)c1cc(N2CCC3(CC2)O[C@@H]2CC[C@@H](c4ccccc4)N2C3=O)ncn1 [Example 4.23, ethyl 6-[(5′S,7a′R)-3′-oxo-5′-phenyltetrahydro-1H,3′H-spiro[piperidine-4,2′-pyrrolo[2,1-b] [1,3]oxazol]-1-yl]pyrimidine-4-carboxylate]"
16,523,"C[C@@]12CC[C@@H](c3ccccc3)N1C(=O)C1(CCN(C(=O)c3ccccc3)CC1)O2 [Example 6.98, (5′S,7a′R)-1-(benzene-carbonyl)-7a′-methyl-5′-phenyltetrahydro-3′H-spiro[piperidine-4,2′-pyrrolo[2,1-b] [1,3]oxazol]-3′-one]"
17,< 25,"COc1ccc(F)c(C(=O)N2CCC3(CC2)O[C@@H]2CC[C@@H](c4cccc(F)c4)N2C3=O)c1 [Example 6.131, (5′S,7a′R)-1-(2-fluoro-5-methoxybenzene-1-carbonyl)-5′-(3-fluoro-phenyl)tetrahydro-3′H-spiro[piperidine-4,2′-pyrrolo[2,1-b] [1,3]oxazol]-3′-one]"
18,31.4,"COc1cc(-n2ccc(N3CCC4(CC3)O[C@@H]3CC[C@@H](c5ccccc5)N3C4=O)n2)ccn1 [Example 11.6, (5′S,7a′R)-1-[1-(2-methoxypyridin-4-yl)-1H-pyrazol-3-yl]-5′-phenyltetrahydro-3′H-spiro[piperidine-4,2′-pyrrolo[2,1-b][1,3]oxazol]-3′-one]"
19,< 25,"COc1ccc(N2CCC3(CC2)O[C@@H]2CC[C@@H](c4cc(F)cc(F)c4)N2C3=O)n2ncnc12 [Example 19.3, (5′S,7a′R)-5′-(3,5-difluorophenyl)-1-(8-methoxy-[1,2,4]triazolo[1,5-a]pyridin-5-yl)tetrahydro-3′H-spiro[piperidine-4,2′ pyrrolo[2,1-b]oxazol]-3′-one, TFA salt]"
20,< 25,"O=C1N2[C@@H](CC[C@H]2c2ccccc2F)OC12CN(c1ccnc(-c3ccc(F)cc3)c1)C2 [Example 4.139, (5′S,7a′R)-5′-(2-fluorophenyl)-1-[2-(4-fluorophenyl)pyridin-4-yl]tetrahydro-3′H-spiro[azetidine-3,2′-pyrrolo[2,1-b] [1,3]oxazol]-3′-one]"
21,344,"COc1cccc([C@@H]2CC[C@H]3OC4(CCN(C(=O)c5ccccc5)CC4)C(=O)N32)n1 [Example 17.5, (5′S,7a′R)-1-benzoyl-5′-(6-methoxypyridin-2-yl)tetrahydro-3′H-spiro[piperidine-4,2′-pyrrolo[2,1-b]oxazol]-3′-one, TFA salt]"
22,164,"O=C1N2[C@@H](CC[C@H]2c2cc(F)cc(F)c2)OC12CCN(c1ncc(F)c(C3CC3)n1)CC2 [Example 4.65, (5′S,7a′R)-1-(4-cyclopropyl-5-fluoropyrimidin-2-yl)-5′-(3,5-difluorophenyl)tetrahydro-3′H-spiro[piperidine-4,2′-pyrrolo[2,1-b] [1,3]oxazol]-3′-one]"
23,80.7,"COc1cnc(N2CCC3(CC2)O[C@@H]2CC[C@@H](c4cc(F)cc(F)c4)N2C3=O)nc1 [Example 4.64, (5′S,7a′R)-5′-(3,5-difluorophenyl)-1-(5-methoxypyrimidin-2-yl)tetrahydro-3′H-spiro[piperidine-4,2′-pyrrolo[2,1-b] [1,3]oxazol]-3′-one]"
24,< 25,"O=C(c1ccc(Cl)cc1F)N1CCC2(CC1)O[C@@H]1CC[C@@H](c3cc(F)cc(F)c3)N1C2=O [Example 5.59, (5′S,7a′R)-1-(4-chloro-2-fluorobenzoyl)-5′-(3,5-difluorophenyl)tetrahydro-3′H-spiro[piperidine-4,2′-pyrrolo[2,1-b]oxazol]-3′-one]"
25,600,"Cc1ccncc1C(=O)N1CCC2(CC1)O[C@@H]1CC[C@@H](c3cc(F)cc(F)c3)N1C2=O [Example 6.51, (5′S,7a′R)-5′-(3,5-difluorophenyl)-1-(4-methylpyridine-3-carbonyl)tetrahydro-3′H-spiro[piperidine-4,2′-pyrrolo[2,1-b] [1,3]oxazol]-3′-one]"
26,< 25,"N#Cc1ccc(N2CCC3(CC2)O[C@@H]2CC[C@@H](c4ccccc4)N2C3=O)c2ccnn12 [Example 13.19, 4-((5′S,7a′R)-3′-oxo-5′ phenyltetrahydro-3′H-spiro[piperidine-4,2′-pyrrolo[2,1-b]oxazol]-1-yl)pyrazolo[1,5-a]pyridine-7-carbonitrile, TFA salt]"
27,24.7,"O=C(c1ccc2c(c1)CCO2)N1CCC2(CC1)O[C@@H]1CC[C@@H](c3cc(F)cc(F)c3)N1C2=O [Example 6.75, (5′S,7a′R)-5′-(3,5-difluorophenyl)-1-(2,3-dihydro-1-benzo-furan-5-carbonyl)-tetrahydro-3′H-spiro [piperidine-4,2′-pyrrolo[2,1-b][1,3]-oxazol]-3′-one]"
28,35.5,"COc1ccnc(N2CCC3(CC2)O[C@@H]2CC[C@@H](c4cc(F)cc(F)c4)N2C3=O)n1 [Example 4.10, (5′S,7a′R)-5′-(3,5-difluorophenyl)-1-(4-methoxypyrimidin-2-yl)tetrahydro-3′H-spiro[piperidine-4,2′-pyrrolo[2,1-b] [1,3]oxazol]-3′-one]"
